Measurements from paper PMC11995724, “Antibiotic target discovery by integrated phenotypic and activity-based profiling of electrophilic fragments” (Cell chemical biology, 2025).
Counter-ions that a name gives are not always drawn.

Test: in vitro
Conditions: human, hek293t cells

Q: For `COc1ccc(CCNC(=O)CCl)cc1` [5-H12, 2-chloro-N-[2-(4-methoxyphenyl)ethyl]acetamide], which viability at 48 h, 25 µM is on record?
A: 0.726%

Q: With `COc1ccc(N(C(=O)CCl)C2C=CS(=O)(=O)C2)cc1` (centres unmarked) [5-H14, 2-chloro-N-(1,1-dioxo-2,3-dihydro-1lambda6-thiophen-3-yl)-N-(4-methoxyphenyl)acetamide] as the compound, how does the viability at 48 h, 25 µM read?
A: 1.1%

Q: For `O=C(CCl)NC1CCCCCC1` [5-H16, 2-chloro-N-cycloheptylacetamide], which viability at 48 h, 25 µM is on record?
A: 17.7%

Q: For `Cc1csc(CN2CCN(C(=O)C(C)Cl)CC2)n1` (centres unmarked) [5-H17, 2-chloro-1-{4-[(4-methyl-1,3-thiazol-2-yl)methyl]piperazin-1-yl}propan-1-one], which viability at 48 h, 25 µM is on record?
A: 87.4%

Q: For `CC(Cl)C(=O)N1N=C(c2ccc(Cl)cc2)CC1c1ccco1` (centres unmarked) [5-H18, 2-chloro-1-[3-(4-chlorophenyl)-5-(furan-2-yl)-4,5-dihydro-1H-pyrazol-1-yl]propan-1-one], which viability at 48 h, 25 µM is on record?
A: 78.1%

Q: With `COc1ccccc1C(NC(=O)C(C)Cl)c1ccco1` (centres unmarked) [5-H19, 2-chloro-N-[(furan-2-yl)(2-methoxyphenyl)methyl]propanamide] as the compound, how does the viability at 48 h, 25 µM read?
A: 120%

Q: Which viability at 48 h, 25 µM does the source give for `CC(C)(C)N(Cc1ccccc1)C(=O)CCl` [5-H20, N-benzyl-N-tert-butyl-2-chloroacetamide] here?
A: 1.81%

Q: With `CC(=O)N1CCC(N(Cc2cncs2)C(=O)C(C)Cl)CC1` (centres unmarked) [5-H21, N-(1-acetylpiperidin-4-yl)-2-chloro-N-[(1,3-thiazol-5-yl)methyl]propanamide] as the compound, how does the viability at 48 h, 25 µM read?
A: 119%

Q: With `CC(Cl)C(=O)Nc1cccc(Cl)c1` (centres unmarked) [5-H22, 2-chloro-N-(3-chlorophenyl)propanamide] as the compound, how does the viability at 48 h, 25 µM read?
A: 78%

Q: For `CCN(CC)C(=O)c1cccc(NC(=O)CCl)c1` [5-I03, 3-(2-chloroacetamido)-N,N-diethylbenzamide], which viability at 48 h, 25 µM is on record?
A: 0.175%

Q: With `O=C(CCl)Nc1cccc(OCc2ccccc2)c1` [5-I04, N-[3-(benzyloxy)phenyl]-2-chloroacetamide] as the compound, how does the viability at 48 h, 25 µM read?
A: 0.885%

Q: With `CCOC(=O)C1=C(C)NC(=O)N(C(=O)CCl)C1c1ccccc1` (centres unmarked) [5-I05, ethyl 3-(2-chloroacetyl)-6-methyl-2-oxo-4-phenyl-1,2,3,4-tetrahydropyrimidine-5-carboxylate] as the compound, how does the viability at 48 h, 25 µM read?
A: 44.7%

Q: For `O=C(CCl)N(Cc1ccccc1)Cc1ccc(F)cc1` [5-I06, N-benzyl-2-chloro-N-[(4-fluorophenyl)methyl]acetamide], which viability at 48 h, 25 µM is on record?
A: 0.621%

Q: Which viability at 48 h, 25 µM does the source give for `CC(Cc1c[nH]c2cc(F)c(F)cc12)NC(=O)CCl` (centres unmarked) [5-I07, 2-chloro-N-[1-(5,6-difluoro-1H-indol-3-yl)propan-2-yl]acetamide] here?
A: 0.657%

Q: For `CNC(=O)c1ccn(C2CCCN(C(=O)CCl)C2)n1` (centres unmarked) [5-I08, 1-[1-(2-chloroacetyl)piperidin-3-yl]-N-methyl-1H-pyrazole-3-carboxamide], which viability at 48 h, 25 µM is on record?
A: 1.61%

Q: For `Cc1cc(NS(=O)(=O)c2ccc(NC(=O)CCl)cc2)nc(C)n1` [5-I09, 2-chloro-N-{4-[(2,6-dimethylpyrimidin-4-yl)sulfamoyl]phenyl}acetamide], which viability at 48 h, 25 µM is on record?
A: 1.31%

Q: Which viability at 48 h, 25 µM does the source give for `CC(c1ccccc1F)N1CCCC(NC(=O)CCl)C1=O` (centres unmarked) [5-I10, 2-chloro-N-{1-[1-(2-fluorophenyl)ethyl]-2-oxopiperidin-3-yl}acetamide] here?
A: 80.5%

Q: For `Cc1cc(CN(C(=O)CCl)c2cn(C)nn2)ccc1Cl` [5-I12, 2-chloro-N-[(4-chloro-3-methylphenyl)methyl]-N-(1-methyl-1H-1,2,3-triazol-4-yl)acetamide], which viability at 48 h, 25 µM is on record?
A: 13.7%

Q: With `CN(Cc1ccc(-c2ccc(Cl)cc2)o1)C(=O)CCl` [5-I13, 2-chloro-N-{[5-(4-chlorophenyl)furan-2-yl]methyl}-N-methylacetamide] as the compound, how does the viability at 48 h, 25 µM read?
A: 16.8%

Q: With `O=C(CCl)N(Cc1ccnn1C1CCC1)C1CC=CCC1` (centres unmarked) [5-I14, 2-chloro-N-[(1-cyclobutyl-1H-pyrazol-5-yl)methyl]-N-(cyclohex-3-en-1-yl)acetamide] as the compound, how does the viability at 48 h, 25 µM read?
A: 0.326%

Q: With `CC(Cl)C(=O)Nc1ccc([N+](=O)[O-])cc1C#N` (centres unmarked) [5-I15, 2-chloro-N-(2-cyano-4-nitrophenyl)propanamide] as the compound, how does the viability at 48 h, 25 µM read?
A: 78.6%

Q: With `O=C(CCl)NC1CN(S(=O)(=O)c2ccc3c(c2)OCCO3)C1` [5-I16, 2-chloro-N-[1-(2,3-dihydro-1,4-benzodioxine-6-sulfonyl)azetidin-3-yl]acetamide] as the compound, how does the viability at 48 h, 25 µM read?
A: 2.6%

Q: With `Cc1ccc(C2=NN(C(=O)CCl)C(c3cccs3)C2)o1` (centres unmarked) [5-I17, 2-chloro-1-[3-(5-methylfuran-2-yl)-5-(thiophen-2-yl)-4,5-dihydro-1H-pyrazol-1-yl]ethan-1-one] as the compound, how does the viability at 48 h, 25 µM read?
A: 0.348%

Q: For `O=C(CCl)N1CCCCc2ccc([N+](=O)[O-])cc21` [5-I18, 2-chloro-1-(8-nitro-2,3,4,5-tetrahydro-1H-1-benzazepin-1-yl)ethan-1-one], which viability at 48 h, 25 µM is on record?
A: 1.56%

Q: For `CCN(C(=O)C(C)Cl)C1CCCCC1` (centres unmarked) [5-I19, 2-chloro-N-cyclohexyl-N-ethylpropanamide], which viability at 48 h, 25 µM is on record?
A: 134%

Q: Which viability at 48 h, 25 µM does the source give for `COc1ccc(N(C(=O)CCl)C2CCS(=O)(=O)C2)cc1` (centres unmarked) [5-I20, 2-chloro-N-(1,1-dioxo-1lambda6-thiolan-3-yl)-N-(4-methoxyphenyl)acetamide] here?
A: 2.54%

Q: With `CC(Cl)C(=O)NC(=O)Nc1ccccc1` (centres unmarked) [5-I21, 3-(2-chloropropanoyl)-1-phenylurea] as the compound, how does the viability at 48 h, 25 µM read?
A: 92.7%

Q: Which viability at 48 h, 25 µM does the source give for `N#Cc1cccc(NC2CCN(C(=O)CCl)C2)c1` (centres unmarked) [5-I22, 3-{[1-(2-chloroacetyl)pyrrolidin-3-yl]amino}benzonitrile] here?
A: 2.25%

Q: With `CN(C(=O)c1ccccc1)C1CC2CCC(C1)N2C(=O)CCl` (centres unmarked) [5-J03, N-[8-(2-chloroacetyl)-8-azabicyclo[3.2.1]octan-3-yl]-N-methylbenzamide] as the compound, how does the viability at 48 h, 25 µM read?
A: 1.62%

Q: Which viability at 48 h, 25 µM does the source give for `CC(Cl)C(=O)N(C)C1CCCCC1` (centres unmarked) [5-J04, 2-chloro-N-cyclohexyl-N-methylpropanamide] here?
A: 94.1%

Q: For `CC1CSc2ccc(Cl)cc2N(C(=O)CCl)C1` (centres unmarked) [5-J05, 2-chloro-1-(7-chloro-3-methyl-2,3,4,5-tetrahydro-1,5-benzothiazepin-5-yl)ethan-1-one], which viability at 48 h, 25 µM is on record?
A: 1.21%

Q: For `O=C(CCl)NCC1CCCCC1` [5-J06, 2-chloro-N-(cyclohexylmethyl)acetamide], which viability at 48 h, 25 µM is on record?
A: 52.1%

Q: Which viability at 48 h, 25 µM does the source give for `CC1CCN(C(=O)CCl)c2cc(C(F)(F)F)ccc2S1` (centres unmarked) [5-J07, 2-chloro-1-[2-methyl-7-(trifluoromethyl)-2,3,4,5-tetrahydro-1,5-benzothiazepin-5-yl]ethan-1-one] here?
A: 0.306%

Q: With `CCN(c1ccc(NC(=O)CCl)cc1)C(C)C` [5-J08, 2-chloro-N-{4-[ethyl(propan-2-yl)amino]phenyl}acetamide hydrochloride] as the compound, how does the viability at 48 h, 25 µM read?
A: 3.48%

Q: With `CCCN(Cc1ccc(C)cc1)C(=O)CCl` [5-J09, 2-chloro-N-[(4-methylphenyl)methyl]-N-propylacetamide] as the compound, how does the viability at 48 h, 25 µM read?
A: 0.952%

Q: For `O=C(CCl)NCCCN1CCCCCC1=O` [5-J10, 2-chloro-N-[3-(2-oxoazepan-1-yl)propyl]acetamide], which viability at 48 h, 25 µM is on record?
A: 119%

Q: With `CN(C)S(=O)(=O)c1ccc(NC(=O)CCl)cc1` [5-J11, 2-chloro-N-[4-(dimethylsulfamoyl)phenyl]acetamide] as the compound, how does the viability at 48 h, 25 µM read?
A: 1.08%

Q: With `CCN(CC)S(=O)(=O)c1ccc(Cl)c(NC(=O)CCl)c1` [5-J12, 2-chloro-N-[2-chloro-5-(diethylsulfamoyl)phenyl]acetamide] as the compound, how does the viability at 48 h, 25 µM read?
A: 0.662%
